This is an account of results in patent publication US6916789B2, “Peyer's patch and/or M-cell targeting ligands” (Merrion Research I Limited, priority 2001, dated 2005).

Where no end group is shown, it is not given here. [ ]: non-standard residue; d: D form.

The test system of assay [1] is Caco-2 homogenates. Description: Synthetic peptide ELISA-based binding to Caco-2 homogenates (streptavidin-peroxidase detection). More on the design: species or system human. The procedure: In order to prepare the Caco-2 cell membrane and cytosolic fractions, confluent Caco-2 cell monolayers (grown in 75 cm^2 flasks for up to 1 week at 37° C. and 5% CO2) were washed twice in Dulbecco's PBS (DPBS). The cell monolayers were then treated with 10 mM EDTA-DPBS for 5-10 minutes at 37° C. and the cells were harvested by centrifugation at 1000 rpm for 5 minutes. The cells were then washed 3×in DPBS. The cell pellet was resuspended in 3 volumes of ice-cold HED buffer (20 mM HEPES (pH 7.67), 1 mM EGTA, 0,5 mM dithiothreitol, 1 mM phenylmethylsuphonyl fluoride (PMSF)) and the cells were allowed to swell for 5 minutes on ice. The cells were then homogenized for 30 seconds. The cell homogenates were then centrifuged in hard walled tubes at 40,000 rpm for 45 minutes at 4° C. (ultracentrifuge Ti90 rotor). The supernatant was removed and the pellet resuspended in HEDG buffer (20 mM HEPES (pH 7.67), 1 mM EGTA, 0.5 mM dithiothreithol, 100 mM NaCl, 10% glycerol, 1 mM PMSF). Three volumes of buffer were then added and the pellet was resuspended and centrifuged again at 1000 rpm for 2 minutes. The supernatant was removed and stored on ice. The procedure was repeated adding the second supernatant to the first and then the procedure was repeated 2-3 more times. The protein concentration was determined using the Bio-Rad protein assay. All fractions were stored at −80° C.
Peptide sequences (SEQ ID NOs: 3, 4, 5, 7, 8, 9, 10, 11, 14, 15, 16, 17, 19, 20, 26, 28, 29, 30) were synthesized with biotin tags at the amino terminal for all peptides and additionally at the carboxyl terminal for SEQ ID NOs:8 and 14. Binding of these peptides to Caco-2 homogenates and/or to rat intestinal tissue homogenates was tested in an ELISA-based assay with streptavidin-peroxidase detection. […] (See FIGS. 13A-13N).
A general note: In an ELISA, binding on a coated surface is turned into a signal by an enzyme label.

In assay [2] the test system is Caco-2 homogenates. The assay is described as follows: Peptide coated particles ELISA-based binding to Caco-2 homogenates. Also on record: species or system human. Particulars: peptide adsorbed to streptavidin particles (0.289 μm). The procedure: Several phage-derived peptides (SEQ ID NOs: 25, 31, 32, 33, and 40) were adsorbed to streptavidin particles (0.289 μm). Peptide coated particles were tested in an ELISA-based assay for binding to Caco-2 homogenates. […] In addition, when one double-mutant peptide ligand (SEQ ID NO:33), is adsorbed to polystyrene particles binding that is approximately 60% of that of the parent peptide is observed (See FIGS. 19A-19B).

For the next assay, the system named is M-cells. The assay is described as follows: Peptide coated fluorescent polystyrene particles in mouse intestinal loops, confocal microscopy. Particulars: fluorescent polystyrene particles (0.289 μm), 30 minutes incubation in loops. It counts as in vivo. The procedure: Biotinylated SEQ ID NO:40 was adsorbed to the surface of fluorescent polystyrene particles (0.289 μm) using routine methodologies at room temperature. Mouse intestinal loops containing one or more polystyrene suspensions (typically 300 μl containing 5.0×10^10 particles per ml) were incubated for 30 minutes. The Peyer's patches were excised, fixed in methanol and the M cells were counter-stained with UEA1-rhodamine for subsequent analysis by confocal microscopy. Stained tissues were examined on a BioRad MRC 600 confocal laser-scanning microscope.

As for “yqcsytmphppv ([dY][dQ][dC][dS][dY][dT][dM][dP][dH][dP][dP][dV]) [SEQ ID NO:40]”, the “binder category / binding to epithelium” value in the assay with Caco-2 homogenates [1] (ELISA, intestinal epithelial tissue, FIGS. 17A-17B Caco-2 homogenates) is on record as “retained high binding”. Also, the “Binding Assay results (Caco-2), Kd” value at Caco-2 homogenates [1] (Tables 9 and 10) is “(Kd˜10 μg/ml)”. The “binding of peptide coated particles” value with Caco-2 homogenates [2] is given as “Binding was retained”. Also, in the assay on M-cells, the “binding and uptake of peptide coated particles” value is “binding and uptake into M-cells”.
